30 compounds from publication PMC10650850, “Discovery, Structure–Activity Relationship and In Vitro Anticancer Activity of Small-Molecule Inhibitors of the Protein–Protein Interactions between AF9/ENL and AF4 or DOT1L” (Cancers, 2023) can be followed below.

Molecules are shown by their SMILES. Counter-ions that a name gives are not always drawn.

One assay concerns the target T1, AF9-DOT1L interaction (Homo sapiens, UniProt P42568).
T1 construct: human AF9 AHD domain (475–568); made in house; host or cells: E. coli BL21(DE3)
T1 sequence (P42568 475-568): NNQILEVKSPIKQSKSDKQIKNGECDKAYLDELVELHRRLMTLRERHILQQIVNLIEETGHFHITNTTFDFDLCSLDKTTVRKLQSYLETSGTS
Put plainly: AlphaLisa assay, AF9-DOT1L interaction. The format is binding.
Conditions: not given
An excerpt: An AlphaLisa assay we previously developed was used for compound screening for inhibitors of the AF9-DOT1L interaction. The PPI takes the DOT1L-peptide coated donor beads and AF9 AHD coated acceptor beads together. The donor beads are illuminated with a laser beam (680 nm) to generate singlet oxygen radicals, which activate the adjacent acceptor beads to produce luminescence at 615 nm. When a compound can disrupt such PPI and separate the donor and acceptor beads, the highly unstable radicals are rapidly quenched by water without generating luminescence.
The cDNA for the human AF9 AHD domain (475–568) and ENL AHD domain (489–559) was synthesized (by Genscript, Piscataway, NJ, USA) and inserted into the pMAL c5X expression plasmid. The DOT1L peptide (Biotin-AHX-[…]) and AF4 peptide (Biotin-AHX-[…]) for the Alpha assay were purchased from Genscript.
Alpha assays were developed in our previous publication, using a Perkin-Elmer AlphaLisa anti-MBP kit, which contains streptavidin donor beads and anti-MBP acceptor beads. Briefly, the assay was performed using a MBP-protein (5 nM), a biotinylated peptide (40 nM), and increasing concentrations of a compound in 25 µL buffer (PBS with 0.5% BSA, pH 7.5) in 384-well plates according to the manufacturer’s protocol and measured with a Tecan SPARK microplate reader. Data were imported into Prism (version 5.0), and IC50 values from 3 independent experiments with standard deviation were obtained by using a standard dose-response curve fitting.
(Alpha assays give light when donor and acceptor beads are brought close together.)
In the case of `O=C(NCC1CCNCC1)c1cc2ccc(-c3ccsc3)cc2[nH]1` [Compound 11], the “Inhibitory activity against the AF9-DOT1L interaction (in words)” value was “almost inactive”.

As for `Cl.O=C(NCC1CCNCC1)c1cc2ccc(-c3ccc(C(=O)N4CCC(N5CCCC5)CC4)cc3)cc2s1` [Compound 34, 6-(4-(4-(Pyrrolidin-1-yl)piperidin-1-carbonyl)phenyl)-N-(piperidin-4-ylmethyl)-benzo[b]thiophene-2-carboxamide hydrochloride], the “Inhibitory activity against the AF9-DOT1L interaction (in words)” value was “inactive”.

The assay is the same for the next values; noted with them: MBP-protein 5 nM, biotinylated peptide 40 nM, 3 independent experiments with standard deviation, read-out: IC50 (μM) against the AF9-DOT1L interaction.
Consider `O=C(NCC1CCNCC1)c1cc2ccc(-c3ccc(N4CCCCC4)cc3)cc2[nH]1` [Compound 1], for which the IC50 – broadly, the concentration that gives 50% inhibition – came out at 3.3 ± 0.2 µM.

Regarding `O=C(NCC1CCNCC1)c1cc2ccc(-c3ccc(N4CCCC4)cc3)cc2[nH]1` [Compound 3, 6-(4-(1-Pyrrolinylphenyl)-N-(piperidin-4-ylmethyl)-1H-indole-2-carboxamide hydrochloride], the half-maximal inhibitory concentration (IC50) was 2.8 ± 0.2 µM.

As to `O=C(NCC1CCNCC1)c1cc2ccc(Nc3ccc(N4CCCCC4)cc3)cc2o1` [Compound 74, 6-((4-(Piperidin-1-yl)phenyl)amino)-N-(piperidin-4-ylmethyl)-benzofuran-2-carboxamide hydrochloride], the IC50 stood at 4.6 ± 0.3 µM.

In the case of `O=C(NCC1CCNCC1)c1cc2ccc(Oc3ccc(Oc4ccc(Cl)cc4)cc3)cc2s1` [Compound 36, 6-(4-(4-Chlorophenoxyl)phenoxyl)-N-(piperidin-4-ylmethyl)-benzo[b]thiophene-2-carboxamide hydrochloride], the IC50 was about 5 µM.

The same assay, now with this note: compound at 5 μM, read-out: % Inhibition at 5 μM against the AF9-DOT1L interaction.
Consider `CC(C)(C)c1cccc(-c2ccc3cc(C(=O)NCC4CCNCC4)[nH]c3c2)c1` [Compound 9, 6-(3-(tert-Butyl)phenyl)-N-(piperidin-4-ylmethyl)-1H-indole-2-carboxamide hydrochloride], for which the inhibition (commonly the drop in the measured response relative to a control, in per cent) at 5 µM amounted to 17%.

Regarding `O=C(NCC1CCNCC1)c1cc2cc(-c3ccc(N4CCOCC4)cc3)ccc2[nH]1` [Compound 17], the inhibition at 5 µM came out at 52%.

For `O=C(NCC1CCNCC1)c1cc2ccc(N3CCC(N4CCCCC4)CC3)cc2s1` [Compound 31], the inhibition at 5 µM was 14%.

In the case of `O=C(NCC1CCNCC1)c1cc2ccc(-c3ccsc3)cc2[nH]1` [Compound 11], the inhibition at 5 µM came to 10%.

With `N#CCc1ccc(-c2ccc3cc(C(=O)NCC4CCNCC4)sc3c2)cc1` [Compound 41, 6-(4-(Cyanomethyl)phenyl)-N-(piperidin-4-ylmethyl)-benzo[b]thiophene-2-carboxamide hydrochloride], the inhibition at 5 µM is about 50%.

Consider `O=C(NCC1CCNCC1)c1cc2cc(Nc3ccc(OC(F)(F)F)cc3)ccc2s1` [Compound 56, 5-((4-(Trifluoromethoxyl)phenyl)amino)-N-(piperidin-4-ylmethyl)-benzo[b]thiophene-2-carboxamide hydrochloride], for which the inhibition at 5 µM came to 24%.

In the case of `O=C(NCC1CCNCC1)c1cc2ccc(-c3ccc(C(=O)N4CCC(N5CCCCC5)CC4)cc3)cc2o1` [Compound 66, 6-(4-((1,4′-Bipiperidine-1-yl)carbonyl)phenyl)-N-(piperidin-4-ylmethyl)-benzofuran-2-carboxamide hydrochloride], the inhibition at 5 µM stood at 0%.

With `O=C(NCC1CCNCC1)c1cc2cc(-c3ccc(C(=O)N4CCCCC4)cc3)ccc2s1` [Compound 51, 5-(4-(Piperidine-1-carbonyl)phenyl)-N-(piperidin-4-ylmethyl)-benzo[b]thiophene-2-carboxamide hydrochloride], the inhibition at 5 µM is 31%.

In the case of `O=C(NCC1CCNCC1)c1cc2ccc(-c3ccc(CCO)cc3)cc2[nH]1` [Compound 7], the inhibition at 5 µM came out at 5.6%.

With `CCN(CC)c1ccc(-c2ccc3cc(C(=O)NCC4CCNCC4)oc3c2)cc1` [Compound 62, 6-(4-(Diethylamino)phenyl)-N-(piperidin-4-ylmethyl)-benzofuran-2-carboxamide hydrochloride], the inhibition at 5 µM amounted to 30%.

`CC(C)(C)c1ccc(-c2ccc3cc(C(=O)NCC4CCNCC4)sc3c2)cc1` [Compound 40, 6-(4-(Tert-butyl)phenyl)-N-(piperidin-4-ylmethyl)-benzo[b]thiophene-2-carboxamide hydrochloride]: the inhibition at 5 µM is 19%.

In the case of `O=C(NCC1CCNCC1)c1cc2ccc(-c3ccc(O)cc3)cc2s1` [Compound 46, 6-(4-Hydroxylphenyl)-N-(piperidin-4-ylmethyl)-benzo[b]thiophene-2-carboxamide hydrochloride], the inhibition at 5 µM was 0%.

With `O=C(NCC1CCNCC1)c1cc2ccc(-c3ccc(-c4ccccc4)cc3)cc2o1` [Compound 67, 6-((1,1′-Biphenyl)-4-yl)-N-(piperidin-4-ylmethyl)-benzofuran-2-carboxamide hydrochloride], the inhibition at 5 µM amounted to 0%.

Turning to `CS(=O)(=O)c1ccc(-c2ccc3cc(C(=O)NCC4CCNCC4)oc3c2)cc1` [Compound 70, 6-(4-(Methylsulfonyl)phenyl)-N-(piperidin-4-ylmethyl)-benzofuran-2-carboxamide hydrochloride], the inhibition at 5 µM was 19%.

Regarding `CS(=O)(=O)c1ccc(-c2ccc3cc(C(=O)NCC4CCNCC4)sc3c2)cc1` [Compound 43, 6-(4-(Methylsulfonyl)phenyl)-N-(piperidin-4-ylmethyl)-benzo[b]thiophene-2-carboxamide hydrochloride], the inhibition at 5 µM amounted to 49%.

As for `O=C(NCC1CCNCC1)c1cc2ccc(-c3ccc(N4CCOCC4)cc3)cc2o1` [Compound 58, 6-(4-Morpholinophenyl)-N-(piperidin-4-ylmethyl)-benzofuran-2-carboxamide hydrochloride], the inhibition at 5 µM was 40%.

In the case of `O=C(NCC1CCNCC1)c1cc2ccc(-c3ccc(C(=O)N4CCCCC4)cc3)cc2o1` [Compound 64, 6-(4-((Piperidine-1-yl)carbonyl)phenyl)-N-(piperidin-4-ylmethyl)-benzofuran-2-carboxamide hydrochloride], the inhibition at 5 µM is 0%.

Take `Cc1ccc(-c2ccc3cc(C(=O)NCC4CCNCC4)sc3c2)cc1` [Compound 47, 6-(4-Methylphenyl)-N-(piperidin-4-ylmethyl)-benzo[b]thiophene-2-carboxamide hydrochloride]: the inhibition at 5 µM came to 47%.

With `O=C(NCC1CCNCC1)c1cc2ccc(-c3ccc(N4CCNCC4)cc3)cc2[nH]1` [Compound 5], the inhibition at 5 µM was found to be 40%.

Turning to `CC(C)(C)c1ccc(-c2ccc3sc(C(=O)NCC4CCNCC4)cc3c2)cc1` [Compound 54, 5-(4-(Tert-butyl)phenyl)-N-(piperidin-4-ylmethyl)-benzo[b]thiophene-2-carboxamide hydrochloride], the inhibition at 5 µM stood at 33%.

In the case of `O=C(NCC1CCNCC1)c1cc2ccc(-c3ccc(C4CCCCC4)cc3)cc2o1` [Compound 61, 6-(4-Cyclohexylphenyl)-N-(piperidin-4-ylmethyl)-benzofuran-2-carboxamide hydrochloride], the inhibition at 5 µM came out at 18%.

Take `N#Cc1ccc(-c2ccc3[nH]c(C(=O)NCC4CCNCC4)cc3c2)cc1F` [Compound 20, 5-(3-Fluoro-4-cyanophenyl)-N-(piperidin-4-ylmethyl)-1H-indole-2-carboxamide hydrochloride]: the inhibition at 5 µM turned out to be 8%.

As to `N#Cc1ccc(-c2ccc3cc(C(=O)NCC4CCNCC4)sc3c2)cc1F` [Compound 42, 6-(4-Cyano-3-fluorophenyl)-N-(piperidin-4-ylmethyl)-benzo[b]thiophene-2-carboxamide hydrochloride], the inhibition at 5 µM stood at 26%.

With `CCN(CC)c1ccc(-c2ccc3cc(C(=O)NCC4CCNCC4)sc3c2)cc1` [Compound 27, 6-(4-(Diethylamino)phenyl)-N-(piperidin-4-ylmethyl)-benzo[b]thiophene-2-carboxamide hydrochloride], the inhibition at 5 µM came out at 25%.

As to `O=C(NCc1ccc(-c2ccc3cc(C(=O)NCC4CCNCC4)oc3c2)cc1)OCc1ccccc1` [Compound 71, 6-(4-(Benzyloxycarbonylaminomethyl)phenyl)-N-(piperidin-4-ylmethyl)-benzofuran-2-carboxamide hydrochloride], the inhibition at 5 µM was determined as 27%.

Take `Cl.O=C(NCC1CCNCC1)c1cc2ccc(-c3ccc(C(=O)N4CCC(N5CCCC5)CC4)cc3)cc2s1` [Compound 34, 6-(4-(4-(Pyrrolidin-1-yl)piperidin-1-carbonyl)phenyl)-N-(piperidin-4-ylmethyl)-benzo[b]thiophene-2-carboxamide hydrochloride]: the inhibition at 5 µM is 5%.

As to `O=C(NCC1CCNCC1)c1cc2ccc(Oc3ccc(Oc4ccc(Cl)cc4)cc3)cc2s1` [Compound 36, 6-(4-(4-Chlorophenoxyl)phenoxyl)-N-(piperidin-4-ylmethyl)-benzo[b]thiophene-2-carboxamide hydrochloride], the inhibition at 5 µM amounted to 50%.
